Reference: the supplement of paper PMC10307832

Compound: CC(C)(C)c1cc(NC(=O)Nc2ccc(-c3cn4c(n3)sc3cc(OCCN5CCOCC5)ccc34)cc2)no1 [Quizartinib] + O=C(CCCCCCC(=O)Nc1ccccc1)NO [Vorinostat] (partner 1 µM)
Test: relative viability (nuclei count vs DMSO), 5 days (fraction); higher = more cells survive
Conditions: first compound 0.001 µM
How it was run: (§1)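 Relative viability equals treated-well nuclei counts divided by vehicle-well nuclei counts. Counts came from 4× images of lung cancer cell lines grown in 1536-well plates for 5 days after pin-tool dosing on the day after seeding. Dosing used one drug alone or a fixed anchor-drug dose plus five library-drug doses (not always all listed) in √10 steps, and values are medians of duplicate plates.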

Cell Line	relative viability
NCI-H2405	0.943
NCI-H3122	0.89
A-427	0.609
NCI-H2342	0.804
LOU-NH91	0.86
NCI-H596	0.565
NCI-H1666	1.06
NCI-H23	0.576
NCI-H838	0.68
NCI-H322M	0.867
NCI-H1793	0.642
NCI-H441	0.755
NCI-H727	1.16
SW 1573	0.556
201T	1
NCI-H1755	0.723

Same assay, conditions: first compound 0.003162 µM

Cell Line	relative viability
ABC-1	1.24
NCI-H1734	0.802
COR-L 105	0.793
HCC-15	0.799
HARA	0.47
NCI-H1975	0.695
NCI-H1944	0.579
NCI-H2126	0.789
EMC-BAC-2	0.486
SK-LU-1	0.716
NCI-H2170	0.803
SW 900	0.561
NCI-H661	0.812
NCI-H358	0.572
CAL-12T	0.711
LK-2	0.185
HOP-62	0.429
PC-14	0.693

Cell Line	relative viability
NCI-H1993	0.76
NCI-H2405	0.967
NCI-H3122	0.799
A-427	0.757
NCI-H2342	0.717
LOU-NH91	1.04
NCI-H596	0.775
NCI-H1666	0.974
NCI-H23	0.6
NCI-H838	0.662
NCI-H322M	0.842
NCI-H1793	0.888
NCI-H441	0.683
NCI-H727	1.13
SW 1573	0.715
201T	0.982
NCI-H1755	0.69

Same assay, conditions: first compound 0.01 µM

Cell Line	relative viability
ABC-1	0.963
NCI-H1734	0.796
COR-L 105	0.871
HCC-15	0.882
HARA	0.553
NCI-H1975	0.745
NCI-H1944	0.465
NCI-H2126	0.711
EMC-BAC-2	0.288
SK-LU-1	0.896
NCI-H2170	0.808
SW 900	0.373
NCI-H661	0.87
NCI-H358	0.803
CAL-12T	0.914
LK-2	0.306
HOP-62	0.577
PC-14	0.858

Cell Line	relative viability
NCI-H1993	0.939
NCI-H2405	0.763
NCI-H3122	0.915
A-427	0.818
NCI-H2342	0.669
LOU-NH91	0.899
NCI-H596	0.61
NCI-H1666	1.16
NCI-H23	0.545
NCI-H838	0.794
NCI-H322M	0.836
NCI-H1793	0.762
NCI-H441	0.972
NCI-H727	1.18
SW 1573	0.684
201T	0.963
NCI-H1755	0.796

Same assay, conditions: first compound 0.03162 µM

Cell Line	relative viability
ABC-1	0.793
NCI-H1734	0.746
HCC-15	0.823
HARA	0.677
NCI-H1975	0.705
NCI-H1944	0.532
NCI-H2126	0.816
SK-LU-1	0.835
NCI-H2170	0.89
SW 900	0.608
NCI-H661	0.807
CAL-12T	0.511
LK-2	0.315
HOP-62	0.566
NCI-H1993	0.726
NCI-H2405	0.902
NCI-H3122	1
A-427	0.767
NCI-H2342	0.69
LOU-NH91	0.721
NCI-H596	0.686
NCI-H1666	0.893
NCI-H23	0.593
NCI-H838	0.707
NCI-H322M	0.878
NCI-H1793	0.809
NCI-H441	0.595
NCI-H727	1.27
201T	0.965
NCI-H1755	0.946

Same assay, conditions: first compound 0.1 µM

Cell Line	relative viability
ABC-1	1.65
NCI-H1734	0.854
COR-L 105	0.881
HCC-15	0.832
HARA	0.426
NCI-H1975	0.721
NCI-H1944	0.588
NCI-H2126	0.841
EMC-BAC-2	0.544
SK-LU-1	0.892
NCI-H2170	0.867
SW 900	0.583
NCI-H661	0.888
NCI-H358	0.815
CAL-12T	0.943
LK-2	0.294
HOP-62	0.619
PC-14	0.858

Cell Line	relative viability
NCI-H1993	0.725
NCI-H2405	1.17
NCI-H3122	0.994
A-427	0.874
NCI-H2342	0.617
LOU-NH91	1.12
NCI-H596	0.6
NCI-H1666	1.07
NCI-H23	0.649
NCI-H838	0.683
NCI-H322M	0.903
NCI-H1793	0.881
NCI-H441	0.834
NCI-H727	1.42
SW 1573	1.27
201T	0.992
NCI-H1755	0.717

Compound: CC(C)(C)c1cc(NC(=O)Nc2ccc(-c3cn4c(n3)sc3cc(OCCN5CCOCC5)ccc34)cc2)no1 [Quizartinib] + Cc1nc(Nc2ncc(C(=O)Nc3c(C)cccc3Cl)s2)cc(N2CCN(CCO)CC2)n1 [Dasatinib] (partner 0.075 µM)
Test: as above
Conditions: first compound 0.001 µM
How it was run: as §1

Cell Line	relative viability
ABC-1	0.578
NCI-H1734	0.408
COR-L 105	0.385
NCI-H1975	0.415
NCI-H1944	0.214
NCI-H2126	0.454
EMC-BAC-2	0.296
